# Experimental data published in patent US4761483A, “Chloro-substituted ketone imidazole derivatives” (G. D. Searle & Co., priority 1985, dated 1988).
# Where “and” joins values, the source holds several entries; their conditions need not be identical. Equal values may be shown once. Read-outs that look alike come from different tables or passages of the source.
# Experiments:
# [1] = tested on: B. fragilis MZ-R ATCC 11295; assay: anti-anaerobic activity, MIC/MBC in 96 well microtitre plates, strain D; type: cell-based, Bacteroides fragilis
# Description: The screening panel utilized in the Example consisted of 5 strains of Bacteroides fragilis. All assays were carried out in 96 well microtitre plates. If an isolate was obtained from either a culture collection or clinical source, the isolate was immediately innoculated into Wilkens-Chalgren broth (Oxoid) and incubated at 37° C. in an anaerobic chamber in an atmosphere of 85% nitrogen, 10% carbon dioxide, and 5% hydrogen for 48 hours. At the end of this time, the viable count was about […] broth. A 1 ml aliquot of each culture was placed in an ampoule and quick frozen in acetone-dry ice mixture and stored in liquid nitrogen. When an inoculum was utilized in an assay, one of the ampoules was thawed and diluted with fresh broth to yield a suspension having a count of 5×10^5 organisms/ml. A 100 μl aliquot of the suspension was inoculated into each well of the microtitre plate. A 2 mg sample of the test compound wa dissolved in 0.2 ml of a suitable solvent such as dimethylsulfoxide, polyethylene glycol 200 or methanol. The solution was then diluted with 4.8 ml of water to yield a solution having a concentration of 400 mg/L. Doubling dilutions of this stock were prepared to give a range of concentrations from 1.6-200 mg/L. 100 μl of each concentration were then placed in the wells of the microtitre plate containing the inoculum, to produce a final concentration range of 0.8-100 mg/l. Metronidazole was employed as a positive control and a solvent/water mixture was employed as a negative control. After addition of the test solution the final inoculum level was 10^5 cells/ml. The plates were incubated for 48 hours at 37° C. in the anaerobic chamber. The Minimum Inhibitory Concentration (MIC) was read visually. The MIC is defined as the lowest concentration at which there is no detectable growth. The Minimum Bactericidal Concentration (MBC) was determined by taking a 50 μl aliquot from each well and placing it in fresh medium. […] The strains of Bacteroides fragilis utilized in the above procedure are identified by letter in accordance with the following legend: |D B. fragilis MZ-R ATCC 11295
# B. fragilis NCTC 10581 = assay: anti-anaerobic activity, MIC/MBC in 96 well microtitre plates, strain A; type: cell-based, Bacteroides fragilis; conditions: for MBC: read-out: MBC (Minimum Bactericidal Concentration)
# B. fragilis NCTC 9344 = assay: anti-anaerobic activity, MIC/MBC in 96 well microtitre plates, strain C; type: cell-based, Bacteroides fragilis; conditions: for MBC: read-out: MBC (Minimum Bactericidal Concentration)
# [2] = tested on: Peptostreptococcus anaerobicus ATCC 27337; assay: anti-anaerobic activity, MIC (procedures of Example 13); type: cell-based; conditions: Peptostreptococcus, ATCC27337
# [3] = tested on: Propionibacterium acnes NCTC 737; assay: as above; type: cell-based; conditions: Cutibacterium acnes, NCTC737, procedures of Example 13 (there mg/L)
# B. fragilis NCTC 9343 = assay: anti-anaerobic activity, MIC/MBC in 96 well microtitre plates, strain B; type: cell-based, Bacteroides fragilis; conditions: for MBC: 99.9% reduction in viable count after 48 hours
# B. fragilis WS-1 = assay: anti-anaerobic activity, MIC/MBC in 96 well microtitre plates, strain E; type: cell-based; conditions: Bacteroides fragilis, 99.9% reduction in viable count after 48 hours
# [4] = tested on: Clostridium perfringens NCTC 523; assay: microbe, parasite or virus in culture; type: cell-based; conditions: NCTC523
# [5] = tested on: Fusobacterium necrophorum ATCC 11295; assay: anti-anaerobic activity, MIC (procedures of Example 13); type: cell-based; conditions: ATCC11295, procedures of Example 13 (there mg/L)
# [6] = tested on: Clostridium perfringens NCTC 8237; assay: microbe, parasite or virus in culture; type: cell-based; conditions: NCTC8237
# [7] = tested on: Propionibacterium acnes NCTC 7337; assay: anti-anaerobic activity, MIC (procedures of Example 13); type: cell-based; conditions: Cutibacterium acnes, NCTC7337, procedures of Example 13 (there mg/L)
# [8] = tested on: Peptococcus magnus ATCC 29328; assay: as above; type: cell-based; conditions: Finegoldia magna, ATCC29328
# [9] = tested on: Campylobacter fetus ATCC 29428; assay: as above; type: cell-based; conditions: ATCC29428, procedures of Example 13 (there mg/L)
# [10] = tested on: Peptococcus prevotti ATCC 9321; assay: as above; type: cell-based
structure (smiles),measurement,setting,value
"Cc1ncc([N+](=O)[O-])n1CCO [Metronidazole, reference compound]",MBC (Minimum Bactericidal Concentration),[1]; 99.9% reduction in viable count after 48 hours,10.0 µg/mL
same,MIC (Minimum Inhibitory Concentration),"[1]; 48 hours at 37° C., anaerobic chamber, 10^5 cells/ml",10.0 µg/mL
same,MBC,"[1]; Bacteroides fragilis, ATCC11295, 48 h, 99.9% reduction in viable count after 48 hours, read-out: MBC (Minimum Bactericidal Concentration)",6.2 µg/mL
same,MIC,"[1]; Bacteroides fragilis, ATCC11295, 48 h, 48 hours at 37° C., anaerobic chamber, 10^5 cells/ml, read-out: MIC (Minimum Inhibitory Concentration)",6.2 µg/mL
same,MBC,"B. fragilis NCTC 10581; Bacteroides fragilis, NCTC10581, 48 h",1.2 µg/mL
same,MBC,"B. fragilis NCTC 10581; Bacteroides fragilis, NCTC10581, 48 h, strain A, 99.9% reduction in viable count after 48 hours",0.8 µg/mL
same,MIC,"B. fragilis NCTC 10581; Bacteroides fragilis, NCTC10581, 48 h, strain A, 48 hours at 37° C., anaerobic chamber, 10^5 cells/ml, read-out: MIC (Minimum Inhibitory Concentration)",0.8 µg/mL
same,MBC (Minimum Bactericidal Concentration),"B. fragilis NCTC 10581; strain A, 99.9% reduction in viable count after 48 hours",0.6 µg/mL
same,MIC (Minimum Inhibitory Concentration),"B. fragilis NCTC 10581; strain A, 48 hours at 37° C., anaerobic chamber, 10^5 cells/ml",0.6 µg/mL
same,MBC,"B. fragilis NCTC 9344; Bacteroides fragilis, NCTC9344, 48 h",1.2 µg/mL
same,MBC,"B. fragilis NCTC 9344; Bacteroides fragilis, NCTC9344, 48 h, strain C, 99.9% reduction in viable count after 48 hours",0.8 µg/mL
same,MIC,"B. fragilis NCTC 9344; Bacteroides fragilis, NCTC9344, 48 h, strain C, 48 hours at 37° C., anaerobic chamber, 10^5 cells/ml, read-out: MIC (Minimum Inhibitory Concentration)",0.8 µg/mL
same,MBC (Minimum Bactericidal Concentration),"B. fragilis NCTC 9344; strain C, 99.9% reduction in viable count after 48 hours",0.6 µg/mL
same,MIC (Minimum Inhibitory Concentration),"B. fragilis NCTC 9344; strain C, 48 hours at 37° C., anaerobic chamber, 10^5 cells/ml",0.6 µg/mL and 1.2 µg/mL
same,MIC,[2],0.8 µg/mL
same,MIC,[3],> 100 µg/mL
same,MBC,"B. fragilis NCTC 9343; Bacteroides fragilis, NCTC9343, 48 h, read-out: MBC (Minimum Bactericidal Concentration), strain B",1.2 µg/mL
same,MIC,"B. fragilis NCTC 9343; Bacteroides fragilis, NCTC9343, 48 h, strain B, 48 hours at 37° C., anaerobic chamber, 10^5 cells/ml, read-out: MIC (Minimum Inhibitory Concentration)",0.8 µg/mL
same,MBC,"B. fragilis NCTC 9343; Bacteroides fragilis, NCTC9343, strain B, read-out: MBC (Minimum Bactericidal Concentration)",0.8 µg/mL
same,MIC (Minimum Inhibitory Concentration),"B. fragilis NCTC 9343; strain B, 48 hours at 37° C., anaerobic chamber, 10^5 cells/ml",1.2 µg/mL and 0.6 µg/mL
same,MBC,"B. fragilis WS-1; WS1, 48 h, read-out: MBC (Minimum Bactericidal Concentration), strain E",1.2 µg/mL
same,MBC,"B. fragilis WS-1; WS1, strain E, read-out: MBC (Minimum Bactericidal Concentration)",1.5 µg/mL
same,MIC,[4],0.8 µg/mL
same,MIC,[5],6.2 µg/mL
same,MIC,[6],0.8 µg/mL
same,MIC,[7],> 100 µg/mL
same,MIC,[8],0.8 µg/mL
same,MIC,[9],> 100 µg/mL
same,MIC,[10],1.5 µg/mL
